Measured values as given in paper PMC4306533, “Distinct Features of Cap Binding by eIF4E1b Proteins” (Journal of Molecular Biology, 2015).

Assays:
[1] = target: T1, X4E1a3 (E101S/K102R/S195A) (Xenopus laevis, UniProt P48597, E101S/K102R/S195A); test: fluorescence titration, XeIF4E1a mutant; format: binding; details: mutant (E101S/K102R/S195A) of XeIF4E1a
T1 construct: made in house; host or cells: E. coli Rosetta2(DE3)
Description: (§1) We tested the effect on cap-binding activity of these positions in the fluorescence assay with six mutated recombinant versions of Xenopus eIF4E1a (Fig. S4). The amino acids were introduced in XeIF4E1a sequentially in the order: E101S/K102R/S195A/M82S/T206L/T207S (numbering of the XeIF4E1a sequence is shifted backward by 4 amino acids relative to XeIF4E1b). […] The biggest contribution to the weaker cap binding of XeIF4E1a, in each case about 20%, resulted from changing Glu101 to Ser and Thr206 to Leu coupled with Thr207 to Ser, with the remaining mutations having only minor effects. […] Glu101 is a solvent-accessible amino acid and is proximal to Trp98 in the S3-S4 loop. […] Attenuation of the cap-binding affinity of XeIF4E1a resulting from mutating Thr206 and Thr207 is consistent with our results mentioned above showing significant influence of C-terminal loop residues on binding phosphate and the second nucleotide.
(§2) For human eIF4E1a and eIF4E1b and also for Xenopus eIF4E1a and its mutated forms, measurements were carried out using 0.1 μM protein in 50 mM Hepes/KOH (pH 7.2), 134.5 mM KCl, 0.5 mM EDTA and 1 mM DTT. For Xenopus eIF4E1b(ΔN27), the concentration was 0.2 μM and glycerol was added to the buffer to 10% (v/v) final concentration. […] The gradually increasing concentration of cap analogue quenches protein fluorescence without shifting the spectrum maximum, while at high concentrations, the fluorescence signal of free cap analogue dominates over the fluorescence from other solution components including free eIF4E and eIF4E in complex with cap (Fig. S2a). Fluorescence of measured samples was excited at 280 nm (2.5 nm bandwidth) and detected at 337 nm or 330 nm (4 nm bandwidth), thus reducing the signal originated from the free cap analogues. Measurements were carried out on a LS-55 spectrofluorometer (Perkin Elmer Co.) using freshly prepared proteins, and the fluorescence intensities were corrected for sample dilution and the inner filter effect.
(§3) Equilibrium association constants (Kas) were determined by fitting the theoretical dependence of fluorescence intensity on the total concentration of the cap analogue to the experimental data points, according to the equation described previously (see Ref. [22] and Fig. S2c). […] Along with Kas and the concentration of the active protein [P0^act], other parameters such as fL and ∆f = fPact − fPL are also gained from the fit, where fL represents the fluorescence efficiency of free cap analogue and ∆f represents the difference between the fluorescence efficiencies of the apo-protein and the complex (Fig. S2c).
(§4) The final Kas was calculated as a weighted average of 2–6 independent titrations with the weights taken as the reciprocal of the numerical standard deviation squared. Numerical, nonlinear least-squares regression analysis was performed using Origin 6.0 (Microcal Software Inc.). Obtained association constants were used to determine the Gibbs free energy according to the standard equation ΔG° = − RTlnKas.

[2] = target: T2, X4E1a4 (E101S/K102R/S195A/M82S) (Xenopus laevis, UniProt P48597, E101S/K102R/M82S/S195A); test: fluorescence titration, XeIF4E1a mutant; format: binding; details: mutant (E101S/K102R/S195A/M82S) of XeIF4E1a
T2 construct: made in house; host or cells: E. coli Rosetta2(DE3)
T2 sequence (P48597 whole entry M82S/E101S/K102R/S195A): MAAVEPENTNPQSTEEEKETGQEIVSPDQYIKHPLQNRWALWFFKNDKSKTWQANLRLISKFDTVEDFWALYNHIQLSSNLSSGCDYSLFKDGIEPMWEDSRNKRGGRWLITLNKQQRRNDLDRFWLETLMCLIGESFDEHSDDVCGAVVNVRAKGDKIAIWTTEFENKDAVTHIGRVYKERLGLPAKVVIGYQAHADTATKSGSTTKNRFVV
Description: as §1, §2, §3, §4

[3] = target: T3, X4E1a6 (E101S/K102R/S195A/M82S/T206L/T207S) (Xenopus laevis, UniProt P48597, E101S/K102R/M82S/S195A/T206L/T207S); test: fluorescence titration, XeIF4E1a mutant; format: binding; details: mutant (E101S/K102R/S195A/M82S/T206L/T207S) of XeIF4E1a
T3 construct: made in house; host or cells: E. coli Rosetta2(DE3)
T3 sequence (P48597 whole entry M82S/E101S/K102R/S195A/T206L/T207S): as the sequence (P48597 whole entry M82S/E101S/K102R/S195A) above, with T206L, T207S counted along it
Description: as §1, §2, §3, §4

XeIF4E1bΔN27 = test: time-synchronized fluorescence titration of cap analogue binding; design: species or system Xenopus laevis; details: 10% glycerol
Description: (§5) The time-synchronized fluorescence titration method, widely used to determine the affinity constants of cap–eIF4E complexes [[20,22–26]], measures the quenching of the intrinsic fluorescence of tryptophan residues due to cap binding (Fig. S2). Knowledge of the equilibrium association constant Kas enables the calculation of the free-energy changes involved in the interaction between eIF4E and ligand, according to the standard equation ΔG° = − RTlnKas.
(§6) For human eIF4E1a and eIF4E1b and also for Xenopus eIF4E1a and its mutated forms, measurements were carried out using 0.1 μM protein in 50 mM Hepes/KOH (pH 7.2), 134.5 mM KCl, 0.5 mM EDTA and 1 mM DTT. For Xenopus eIF4E1b(ΔN27), the concentration was 0.2 μM and glycerol was added to the buffer to 10% (v/v) final concentration. […] Fluorescence of measured samples was excited at 280 nm (2.5 nm bandwidth) and detected at 337 nm or 330 nm (4 nm bandwidth), thus reducing the signal originated from the free cap analogues. Measurements were carried out on a LS-55 spectrofluorometer (Perkin Elmer Co.) using freshly prepared proteins, and the fluorescence intensities were corrected for sample dilution and the inner filter effect.
(§7) Equilibrium association constants (Kas) were determined by fitting the theoretical dependence of fluorescence intensity on the total concentration of the cap analogue to the experimental data points, according to the equation described previously (see Ref. [22] and Fig. S2c).
as §4

XeIF4E1a [4] = target: T4, XeIF4E1a (Xenopus laevis, UniProt P48597); test: as above; details: for ΔΔG^o + glycerol XeIF4E1a / Kas + glycerol XeIF4E1a: 10% glycerol; for Kas + glycerol XeIF4E1a / Kas − glycerol XeIF4E1a: equilibrium association constant; for Kas − glycerol XeIF4E1a: buffer without glycerol
T4 construct: made in house; host or cells: E. coli Rosetta2(DE3)
T4 sequence (P48597 whole entry): as the sequence (P48597 whole entry M82S/E101S/K102R/S195A) above, with S82M, S101E, R102K, A195S counted along it
Description: as §5, §6, §7, §4

heIF4E1a [5] = target: T5, heIF4E1a (Homo sapiens, UniProt P06730); test: as above; details: change relative to m^7GTP; without glycerol
T5 construct: made in house; host or cells: E. coli Rosetta2(DE3)
T5 sequence (P06730 whole entry): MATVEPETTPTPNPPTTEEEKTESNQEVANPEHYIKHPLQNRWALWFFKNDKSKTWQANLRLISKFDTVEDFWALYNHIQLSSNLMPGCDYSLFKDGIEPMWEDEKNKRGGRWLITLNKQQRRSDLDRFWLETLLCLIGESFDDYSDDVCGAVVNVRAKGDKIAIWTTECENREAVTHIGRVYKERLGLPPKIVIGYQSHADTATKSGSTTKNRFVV
Description: as §5, §6, §7, §4

XeIF4E1a [6] = test: as above; design: species or system Xenopus laevis; details: without glycerol
Description: as §5, §6, §7, §4

heIF4E1b [7] = test: as above; design: species or system human; details: for Ratio Kas (h4E1a) to Kas (h4E1b): without glycerol
Description: as §5, §6, §7, §4

heIF4E1b [8] = target: T6, heIF4E1b (Homo sapiens, UniProt A6NMX2); test: as above; details: for Kas − glycerol heIF4E1b: equilibrium association constant, buffer without glycerol
T6 construct: made in house; host or cells: E. coli Rosetta2(DE3)
T6 sequence (A6NMX2 1-242): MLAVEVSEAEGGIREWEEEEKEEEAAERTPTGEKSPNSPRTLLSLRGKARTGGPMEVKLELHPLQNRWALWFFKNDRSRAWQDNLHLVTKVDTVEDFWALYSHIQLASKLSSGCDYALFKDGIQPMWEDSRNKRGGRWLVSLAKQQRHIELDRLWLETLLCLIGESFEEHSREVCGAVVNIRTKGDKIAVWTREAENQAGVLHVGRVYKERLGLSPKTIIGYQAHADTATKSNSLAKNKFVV
Description: as §5, §6, §7, §4

heIF4E1a [9] = target: T5, heIF4E1a; design: method as in PMID 17369309; details: equilibrium association constant; buffer without glycerol; footnote b; cited from earlier work
[10] = change relative to m^7GTP, without glycerol

T1 sequence (P48597 whole entry E101S/K102R/S195A): as the sequence (P48597 whole entry M82S/E101S/K102R/S195A) above, with S82M counted along it

Kas X4E1a3 [1] | Kas X4E1a4 [2] | Kas X4E1a6 [3] | Ratio Kas (X4E1a) to Kas (X4E1bΔN27) (XeIF4E1bΔN27) | ΔΔG^o + glycerol XeIF4E1bΔN27 (XeIF4E1bΔN27; change relative to m^7GTP) | Kas + glycerol XeIF4E1bΔN27 (XeIF4E1bΔN27; equilibrium association constant) | ΔΔG^o + glycerol XeIF4E1a (XeIF4E1a [4]; change relative to m^7GTP) | ΔΔG^o − glycerol XeIF4E1a (XeIF4E1a [4]; [10]) | Kas + glycerol XeIF4E1a (XeIF4E1a [4]) | Kas − glycerol XeIF4E1a (XeIF4E1a [4]) | ΔΔG^o − glycerol heIF4E1a (heIF4E1a [5]) | Ratio Kas (h4E1a) to Kas (X4E1a) (XeIF4E1a [6]) | Ratio Kas (h4E1a) to Kas (h4E1b) (heIF4E1b [7]) | ΔΔG^o − glycerol heIF4E1b (heIF4E1b [8]; [10]) | Kas − glycerol heIF4E1b (heIF4E1b [8]) | fold higher affinity of human eIF4E1b than eIF4E1a (heIF4E1b [7]; human proteins) | ΔΔG^o + glycerol XeIF4E1a (XeIF4E1a [4]; change relative to m^7Gp3G) | SMILES | Kas − glycerol heIF4E1a (heIF4E1a [9])
1.57 ± 0.21 µM⁻¹ | 1.48 ± 0.11 µM⁻¹ | 1.33 ± 0.11 µM⁻¹ | 1.99 | 1.479 ± 0.050 kcal/mol | 0.615 ± 0.042 μM^− 1 | 1.717 ± 0.033 kcal/mol | 1.779 ± 0.029 kcal/mol | 1.22 ± 0.053 μM^− 1 | 2.015 ± 0.028 μM^− 1 | 1.658 ± 0.053 kcal/mol | 1.97 | 1.84 | 1.352 ± 0.039 kcal/mol | 2.158 ± 0.053 μM^− 1 |  |  | Cn1c[n+]([C@@H]2O[C@H](COP(=O)(O)OP(=O)(O)OP(=O)(O)OC[C@H]3O[C@@H](n4cnc5c(N)ncnc54)[C@H](O)[C@@H]3O)[C@@H](O)[C@H]2O)c2nc(N)[nH]c(=O)c21 [m^7GpppA] | 3.97 ± 0.21 ^b μM^− 1
 |  |  |  |  |  |  |  | 0.055 ± 0.021 μM^− 1 | 0.031 ± 0.006 μM^− 1 |  | 0.87 | 0.17 |  | 0.159 ± 0.040 μM^− 1 | approximately 5 fold |  | Nc1nc2c(ncn2[C@@H]2O[C@H](COP(=O)(O)OP(=O)(O)OP(=O)(O)O)[C@@H](O)[C@H]2O)c(=O)[nH]1 [GTP, reference compound] | 0.027 ± 0.001 ^b μM^− 1
 |  |  |  |  |  |  |  | 1.96 ± 0.24 μM^− 1 |  |  |  | 1.32 |  | 4.63 ± 0.12 μM^− 1 |  | 0.091 ± 0.074 kcal/mol | COC1C(O)C(COP(=O)(O)OP(=O)(O)OP(=O)(O)OCC2OC(n3cnc4c(=O)[nH]c(N)nc43)C(O)C2O)OC1n1c[n+](C)c2c(=O)[nH]c(N)nc21 (stereo not shown) [m^7,2′-OGpppG] | 6.13 ± 0.34 ^b μM^− 1
